Data as given in ChEMBL document CHEMBL6134895, “Strategic Design and Optimization of Umifenovir Analogues: Balancing Antiviral Efficacy and hERG Toxicity against SARS-CoV-2” (J Med Chem, 2025).
Calls of active or inactive are those of the source. The calls are words filed in the database; no cut-off is given here.

How the values were obtained:
[1] = system: SARS-CoV-2; assay: Antiviral activity against SARS CoV-2 Wuhan infected in African green monkey Vero E6 cells assessed as inhibition of viral replication pretreated for 15 mins followed by compound removal and induction of viral infection for 1 hr and subsequent removal of inoculum and further addition of media containing compound measured after 24 hrs by cell-based ELISA; type: functional, organism-based; settings: for IC50: Severe acute respiratory syndrome coronavirus 2, Wuhan, Vero C1008; for inhibition: Severe acute respiratory syndrome coronavirus 2, time 24.25 hrs
[2] = system: Vero C1008; assay: Cytotoxicity against African green monkey Vero E6 cells assessed as cell viability at 5 uM incubated for 48 hrs by MTT assay; type: toxicity, cell-based; settings: chlorocebus sabaeus, vero c1008, 48 h, 5 µM
[3] = system: SARS-CoV-2; assay: Antiviral activity against SARS CoV-2 Wuhan infected in African green monkey Vero E6 cells assessed as virus inactivation at 10 uM pretreated for 15 mins followed by compound removal and induction of viral infection for 1 hr and subsequent removal of inoculum and further addition of media containing compound measured after 48 hrs by RT-qPCR analysis relative to control; type: functional
[4] = system: SARS-CoV-2; assay: Antiviral activity against SARS CoV-2 Wuhan infected in African green monkey Vero E6 cells assessed as virus inactivation at 1 uM pretreated for 15 mins followed by compound removal and induction of viral infection for 1 hr and subsequent removal of inoculum and further addition of media containing compound measured after 48 hrs by RT-qPCR analysis relative to control; type: functional, Severe acute respiratory syndrome coronavirus 2; settings: time 48.25 hrs
[5] = system: SARS-CoV-2; assay: Antiviral activity against SARS CoV-2 Wuhan infected in African green monkey Vero E6 cells assessed as inhibition of viral replication pretreated for 15 mins followed by compound removal and induction of viral infection for 1 hr and subsequent removal of inoculum and further addition of media containing compound measured after 48 hrs by RT-qPCR analysis; type: functional, organism-based; settings: Severe acute respiratory syndrome coronavirus 2, time 48.25 hrs
[6] = molecular target: Voltage-gated inwardly rectifying potassium channel KCNH2 (Homo sapiens, UniProt Q12809); assay: Inhibition of hERG extracted from membrane (unknown origin) incubated for 4 hrs by fluorescence polarization assay; type: toxicity, cell membranes
[7] = system: SARS-CoV-2; assay: Antiviral activity against SARS CoV-2 Wuhan infected in African green monkey Vero E6 cells assessed as virus inactivation at 5 uM pretreated for 15 mins followed by compound removal and induction of viral infection for 1 hr and subsequent removal of inoculum and further addition of media containing compound measured after 48 hrs by RT-qPCR analysis relative to control; type: functional, Severe acute respiratory syndrome coronavirus 2; settings: time 48.25 hrs
[8] = Severe acute respiratory syndrome coronavirus 2, time 48.25 hrs

Sequence of Voltage-gated inwardly rectifying potassium channel KCNH2 (Q12809 whole entry): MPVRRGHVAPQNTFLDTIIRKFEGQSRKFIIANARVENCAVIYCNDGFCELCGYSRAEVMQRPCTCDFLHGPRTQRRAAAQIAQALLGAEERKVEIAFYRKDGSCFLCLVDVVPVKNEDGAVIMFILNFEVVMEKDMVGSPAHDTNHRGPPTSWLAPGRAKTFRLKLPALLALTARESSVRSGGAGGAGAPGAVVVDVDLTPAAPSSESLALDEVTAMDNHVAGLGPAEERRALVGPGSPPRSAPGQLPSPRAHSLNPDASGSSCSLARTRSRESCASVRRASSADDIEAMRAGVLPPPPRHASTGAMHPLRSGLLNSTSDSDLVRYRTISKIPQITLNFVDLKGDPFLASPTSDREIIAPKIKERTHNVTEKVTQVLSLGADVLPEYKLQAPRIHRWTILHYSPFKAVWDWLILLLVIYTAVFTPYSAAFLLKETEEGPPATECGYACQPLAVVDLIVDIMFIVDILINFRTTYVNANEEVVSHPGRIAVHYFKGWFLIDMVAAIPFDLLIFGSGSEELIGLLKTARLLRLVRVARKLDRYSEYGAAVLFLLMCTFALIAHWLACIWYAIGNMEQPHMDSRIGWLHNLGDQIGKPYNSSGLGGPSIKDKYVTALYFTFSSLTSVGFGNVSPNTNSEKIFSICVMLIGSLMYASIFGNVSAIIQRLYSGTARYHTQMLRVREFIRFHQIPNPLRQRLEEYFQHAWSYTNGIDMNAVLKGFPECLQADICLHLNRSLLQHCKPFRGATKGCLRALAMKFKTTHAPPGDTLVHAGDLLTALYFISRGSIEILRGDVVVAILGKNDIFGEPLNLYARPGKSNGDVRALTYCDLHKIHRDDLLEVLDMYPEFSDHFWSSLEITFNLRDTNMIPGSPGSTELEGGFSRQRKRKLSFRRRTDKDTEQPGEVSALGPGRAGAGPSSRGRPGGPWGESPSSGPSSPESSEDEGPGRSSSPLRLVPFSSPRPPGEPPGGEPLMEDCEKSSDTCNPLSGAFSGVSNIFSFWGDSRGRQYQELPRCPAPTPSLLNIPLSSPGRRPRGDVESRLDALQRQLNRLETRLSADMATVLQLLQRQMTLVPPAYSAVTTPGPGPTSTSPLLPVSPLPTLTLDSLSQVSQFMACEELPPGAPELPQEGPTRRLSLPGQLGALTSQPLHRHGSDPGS

| Compound | IC50 [1] | Activity [2] | Activity [3, 8] | inhibition [5] | further results |
| --- | --- | --- | --- | --- | --- |
| Cn1c(CSc2ccc(F)cc2F)c(C(=O)NC(C)(C)C)c2cc(O)c(Br)cc21 | 4.6 µM | Non-toxic | – | – | – |
| CCOC(=O)c1c(CSc2c(C)cc(C)cc2C)n(Cc2cccc3ccccc23)c2cc(Br)c(O)cc12 | – | Non-toxic | Not active; No Significant Effect Observed | – | inhibition [1]: inactive |
| CCOC(=O)c1c(CSc2ccccc2)n(C)c2cc(Br)c(O)cc12 | 8.4 µM | Non-toxic | – | – | Activity [4]: <90% |
| CCOC(=O)c1c(CSc2ccc(C)cc2C)n(Cc2ccc(-c3ccccc3)cc2)c2cc(Br)c(O)cc12 | – | Non-toxic | Not active; No Significant Effect Observed | Not active; No Significant Effect | – |
| CCOC(=O)c1c(CSc2ccccc2C(F)(F)F)n(C)c2cc(Br)c(O)cc12 | – | – | Not active; No Significant Effect Observed | Not active; No Significant Effect | – |
| Cn1c(CSc2ccc(F)cc2)c(C(=O)Nc2cc[nH]n2)c2cc(O)c(Br)cc21 | 2.3 µM | Non-toxic | – | – | IC50 [6]: > 30 µM |
| CCOC(=O)c1c(CSc2ccccc2OC)n(C)c2cc(Br)c(O)c(CN(C)C)c12 | – | – | Not active; No Significant Effect Observed | Not active; No Significant Effect | – |
| CCOC(=O)c1c(CSc2ccc(C)cc2C)n(Cc2ccc(C(C)(C)C)cc2)c2cc(Br)c(O)cc12 | – | Non-toxic | Not active; No Significant Effect Observed | Not active; No Significant Effect | – |
| Cn1cc(NC(=O)c2c(CSc3ccccc3)n(C)c3cc(Br)c(O)cc23)cn1 | 1.5 µM | Non-toxic | – | – | – |
| CCOC(=O)c1c(CSc2ccc(C)cc2C)n(Cc2ccc(C#N)cc2)c2cc(Br)c(O)cc12 | – | Non-toxic | Not active; No Significant Effect Observed | Not active; No Significant Effect | – |
| Cn1c(CSc2ccc(F)cc2)c(C(=O)NC(C)(C)C)c2cc(O)c(Br)cc21 | – | – | – | – | inhibition [1]: inactive |
| CCOC(=O)c1c(CSc2ccccc2)n(Cc2cccc3ccccc23)c2cc(Br)c(O)cc12 | – | – | Not active; No Significant Effect Observed | – | inhibition [1]: inactive |
| CCOC(=O)c1c(CSc2ccc(C)cc2C)n(Cc2ccc(C)cc2)c2cc(Br)c(O)cc12 | 2.1 µM | Non-toxic | – | – | Activity [7]: >99%; IC50 [6]: > 30 µM |
| CC(C)N1CCN(C(=O)c2c(CSc3ccccc3)n(C)c3cc(Br)c(O)cc23)CC1 | 3.05 µM | Non-toxic | – | – | IC50 [6]: 1.19 µM |
| CCOC(=O)c1c(CSc2ccccc2OC)n(C)c2cc(Br)c(O)cc12 | – | – | Not active; No Significant Effect Observed | Not active; No Significant Effect | – |
| CCOC(=O)c1c(CSc2ccccc2OC(F)(F)F)n(C)c2cc(Br)c(O)c(CN(C)C)c12 | – | – | Not active; No Significant Effect Observed | Not active; No Significant Effect | – |
| CC(C)N1CCC(NC(=O)c2c(CSc3ccc(F)cc3)n(C)c3cc(Br)c(O)cc23)CC1 | – | – | – | – | inhibition [1]: inactive |
| CC(C)N1CCC(NC(=O)c2c(CSc3ccccc3)n(C)c3cc(Br)c(O)cc23)CC1 | 6.6 µM | Non-toxic | – | – | IC50 [6]: 7.09 µM |
| CCOC(=O)c1c(CSc2ccccc2F)n(C)c2cc(Br)c(O)cc12 | – | – | – | Not active; No Significant Effect | inhibition [1]: inactive; Activity [4]: <90% |
| CCOC(=O)c1c(CSc2ccccc2OC(F)(F)F)n(C)c2cc(Br)c(O)cc12 | – | – | Not active; No Significant Effect Observed | Not active; No Significant Effect | – |

| Compound | IC50 [1] | Activity [2] | Activity [3, 8] | inhibition [5] | further results |
| --- | --- | --- | --- | --- | --- |
| CCOC(=O)c1c(CSc2ccc(F)cc2)n(Cc2ccc(F)cc2)c2cc(Br)c(O)cc12 | – | Non-toxic | – | Not active; No Significant Effect | Activity [7]: >95% |
| CCOC(=O)c1c(CSc2ccc(F)cc2)n(Cc2ccc(C)cc2)c2cc(Br)c(O)cc12 | – | Non-toxic | Not active; No Significant Effect Observed | Not active; No Significant Effect | – |
| CCOC(=O)c1c(CSc2ccccc2C(F)(F)F)n(C)c2cc(Br)c(O)c(CN(C)C)c12 | – | – | Not active; No Significant Effect Observed | Not active; No Significant Effect | – |
| CCOC(=O)c1c(CSc2c(C)cc(C)cc2C)n(C)c2cc(Br)c(O)c(CN(C)C)c12 | – | Non-toxic | Not determined; No Significant Effect Observed | Not active; No Significant Effect | – |
| CCOC(=O)c1c(CSc2ccccc2)n(Cc2ccc(F)cc2)c2cc(Br)c(O)cc12 | 1.1 µM | Non-toxic | – | – | Activity [7]: >99%; IC50 [6]: > 30 µM |
| CCC(CC)COC(=O)[C@H](C)N[P@](=O)(OC[C@H]1O[C@@](C#N)(c2ccc3c(N)ncnn23)[C@H](O)[C@@H]1O)Oc1ccccc1 | 0.76 µM | – | – | – | – |
| CCOC(=O)c1c(CSc2ccc(F)cc2F)n(C)c2cc(Br)c(O)cc12 | – | – | Not active; No Significant Effect Observed | inactive | inhibition [1]: inactive |
| CCOC(=O)c1c(CSc2ccc(C)cc2C)n(Cc2ccc(F)cc2)c2cc(Br)c(O)cc12 | – | Non-toxic | Not active; No Significant Effect Observed | Not active; No Significant Effect | – |
| CN1CCC(NC(=O)c2c(CSc3ccc(F)cc3)n(C)c3cc(Br)c(O)cc23)CC1 | 3.8 µM | Non-toxic | – | – | – |
| CCOC(=O)c1c(CSc2c(C)cc(C)cc2C)n(C)c2cc(Br)c(O)cc12 | 8.75 µM | Non-toxic | Not determined; No Significant Effect Observed | – | – |
| CCOC(=O)c1c(CSc2ccc(F)cc2)n(C)c2cc(Br)c(O)c(CN(C)C)c12 | – | Non-toxic | – | Not active; No Significant Effect | – |
| CC(C)N1CCN(C(=O)c2c(CSc3ccc(F)cc3)n(C)c3cc(Br)c(O)cc23)CC1 | 1.7 µM | Non-toxic | – | – | – |
| CCOC(=O)c1c(CSc2ccccc2)[nH]c2cc(Br)c(O)cc12 | – | Non-toxic | Not active; No Significant Effect Observed | Not active; No Significant Effect | – |
| CCOC(=O)c1c(CSc2ccc(F)cc2C)n(Cc2cccc3ccccc23)c2cc(Br)c(O)cc12 | – | Non-toxic | Not active; No Significant Effect Observed | – | inhibition [1]: inactive |
| CCOC(=O)c1c(CSc2ccc(C)cc2C)n(Cc2ccc(Cl)cc2)c2cc(Br)c(O)cc12 | – | – | Not active; No Significant Effect Observed | Not active; No Significant Effect | – |
| Cc1ccc(Cn2c(CSc3c(C)cc(C)cc3C)c(C(=O)NC3CCN(C)CC3)c3cc(O)c(Br)cc32)cc1 | – | Non-toxic | – | – | – |
| CCOC(=O)c1c(CSc2c(C)cc(C)cc2C)n(Cc2ccc(C)cc2)c2cc(Br)c(O)c(CN(C)C)c12 | 10 µM | Non-toxic | Not determined; No Significant Effect Observed | – | IC50 [6]: 3.85 µM |
| Cn1c(CSc2ccccc2)c(C(=O)N2CCC(N3CCOCC3)CC2)c2cc(O)c(Br)cc21 | 3.1 µM | Non-toxic | – | – | IC50 [6]: 13 µM |
| CCOC(=O)c1c(CSc2ccc(F)cc2)n(C)c2cc(Br)c(O)cc12 | – | Non-toxic | – | – | inhibition [1]: inactive; Activity [4]: <90%; Activity ([3]; time 48.25 hrs): 99.9% |
| CCOC(=O)c1c(CSc2c(C)cc(C)cc2C)n(Cc2ccc(F)cc2)c2cc(Br)c(O)cc12 | 1.3 µM | Non-toxic | – | – | Activity [7]: >95% |
